{
  "source": "paper PMC9028219",
  "about": "(Frontiers in Nutrition, 2022)",
  "key": {"FaDu cells": {"system": "FaDu cells", "test": "Annexin V-FITC/PI apoptosis assay", "format": "cell-based, human", "method": "The cell cycle analysis was carried out by the protocol reported by Fatima et al. ([40]). The cell lines were fixed with 70% ethanol. Before analysis, fixed cells were washed at least two times with PBS and PI solution containing RNase A to stain the cells. The samples were run on a flow cytometer within 1 h. Treated FaDu cells were incubated with 10 μM of DCFH-DA dye for 30 min then fluorescence was measured at 485/530 nm of […]. For FACS analysis, treated cells were incubated with 10 μM of DCFH-DA dye for 30 min, and the samples were analyzed within 1 h ([41]). The protocol for the analysis of MMP was similar to that of DCFH-DA except for Rhodamine 123 dye ([41]). The experiment was also carried out as per the method reported in Annexin-V-FITC apoptosis detection kit I (BD Pharmingen^TM, Catalog No. 556547). For the assay, 1 × 10^6 cells were grown in 6 well plates and treatment was given 24 h. The next day, cells were washed with cold PBS, and the pellet was resuspended in 100 μl (1X binding) buffer and left for 15 min followed by incubation with a dual fluorescent dye (5 μl FITC and 5 μl PI) for 10 min. The cell suspension was maintained upto 500 μl from the 1X binding buffer. The stained cells were analyzed by flow cytometer within 1 h ([42])."}, "[1]": {"system": "Sarcoma-180 (S-180) tumor", "conditions": "for Tumor growth inhibition: days 1-9, evaluated day 12; for Tumor cell count Mean ± S.E / Tumor volume Mean ± S.E / Tumor weight Mean ± S.E: days 1-9, evaluated day 12, n = 5", "method": "The S-180 cells were collected from Swiss albino mice harboring 8–10 days old cells from the peritoneal cavity. On day 0, the S-180 cells (1 × 10^7 cells/ml) were injected intra-peritoneal in non-inbred female Swiss albino mice (22–25 g, 8–10 weeks old) selected for the experiment. The next day (Day 1), the animals were randomized and divided into three treatment groups, one positive control group and one vehicle control group containing 5 animals in each group. […] The fourth group was given 5-fluorouracil; positive control at a dose of 20 mg/kg bw i.p. from day 1–9, and the fifth group (control) was administered normal saline (0.2 ml i.p.) for 9 days. On day 12, the animals were sacrificed, and the fluid was collected from each mouse's peritoneal cavity to evaluate tumor growth ([43]). The tumor growth inhibition was calculated using the following formula.\nTumor Growth Inhibition(%)=(Number of tumor cells in control group-Number of tumor cells in the test group)/Number of tumor cells in the control group×100"}, "[2]": {"conditions": "higher concentration (4 x IC50), 24 h"}},
  "note": "Like-named read-outs stand apart in the source and are kept apart here.",
  "data": [
    {"compound": "Cc1ccc(C(C)C)cc1O", "note": "[carvacrol, 5-isopropyl-2-methyl phenol]", "values": [
      {"measurement": "significance of effect on apoptosis and necrosis", "setting": "FaDu cells; Annexin V-FITC and PI", "result": "non-significant"},
      {"measurement": "early apoptosis (A+/P-)", "setting": "FaDu cells; [2]", "result": 0.1, "unit": "%"},
      {"measurement": "late apoptosis (A+/P+)", "setting": "FaDu cells; [2]", "result": 1.4, "unit": "%"},
      {"measurement": "necrosis (A-/P+)", "setting": "FaDu cells; [2]", "result": 3.4, "unit": "%"},
      {"measurement": "Tumor growth inhibition", "setting": "[1]; 25 mg/kg bw i.p.", "result": 28.12, "unit": "%"},
      {"measurement": "Tumor cell count Mean ± S.E", "setting": "[1]; 25 mg/kg bw i.p.", "result": "57.5 ± 8.72 1 × 10^7"},
      {"measurement": "Tumor volume Mean ± S.E", "setting": "[1]; 25 mg/kg bw i.p.", "result": "3.5 ± 0.54", "unit": "mL"},
      {"measurement": "Tumor weight Mean ± S.E", "setting": "[1]; 25 mg/kg bw i.p.", "result": "3.36 ± 0.60", "unit": "g"},
      {"measurement": "Tumor growth inhibition", "setting": "[1]; 50 mg/kg bw i.p.", "result": 55.94, "unit": "%"},
      {"measurement": "Tumor cell count Mean ± S.E", "setting": "[1]; 50 mg/kg bw i.p.", "result": "35.25 ± 4.68^** 1 × 10^7"},
      {"measurement": "Tumor volume Mean ± S.E", "setting": "[1]; 50 mg/kg bw i.p.", "result": "1.57 ± 0.25", "unit": "mL"},
      {"measurement": "Tumor weight Mean ± S.E", "setting": "[1]; 50 mg/kg bw i.p.", "result": "1.39 ± 0.33", "unit": "g"},
      {"measurement": "Tumor growth inhibition", "setting": "[1]; 75 mg/kg bw i.p.", "result": 72.62, "unit": "%"},
      {"measurement": "Tumor volume Mean ± S.E", "setting": "[1]; 75 mg/kg bw i.p.", "result": "1.16 ± 0.34", "unit": "mL"},
      {"measurement": "Tumor weight Mean ± S.E", "setting": "[1]; 75 mg/kg bw i.p.", "result": "1.10 ± 0.41", "unit": "g"},
      {"measurement": "effect on mice bw", "setting": "[1]; 75, 50 and 25 mg/kg bw i.p.", "result": "no adverse effect"},
      {"measurement": "mortality", "setting": "[1]; during the experimental period", "result": "no mortality was noticed"}
    ]}
  ]
}
